Test results published in ChEMBL document CHEMBL1132661, “Synthesis and preliminary biological evaluation of new alpha-amino amide anticonvulsants incorporating a dextromethorphan moiety” (Bioorg Med Chem Lett, 1999).

Columns and labels:
[1] = target: T1, Sodium channel alpha subunits; brain (Types I, II, III) (Rattus norvegicus, UniProt P04775+P04774+P08104); experiment: Binding of [3H]batrachotoxin (BTX) to rat brain sodium channel
[2] = tested on: Mus musculus; experiment: Psychomotor side-effect in mice by rotarod test by intraperitoneal administration at 60 mins; assay type: functional; details: ip, 1 h
[3] = target: T1, Sodium channel alpha subunits; brain (Types I, II, III); experiment: Binding of [3H]saxitoxin (STX) to rat brain sodium channel
[4] = tested on: Mus musculus; experiment: Anticonvulsant activity in mice by intraperitoneal administration measured at 30 mins before maximum electroshock seizure induction; assay type: functional; details: ip
[5] = tested on: Mus musculus; experiment: Anticonvulsant activity in mice by peroral administration measured at 60 mins before maximum electroshock seizure induction; assay type: functional; details: po
[6] = Therapeutic index TI (ED50 rotorod/MES) of the compound; details: mouse; read-out: TI
[7] = Significant mortality was observed in mice caused by the compound; assay type: ADME; details: mouse, in vivo

Compound: C[C@H](C(N)=O)N1CCC23CCCCC2[C@@H]1Cc1ccc(OCc2cccc(F)c2)cc13 (stereo partly specified)
- IC50 [1]: 2.6 µM
- ED50 [2]: 176 mg/kg
- IC50 [3]: > 300 µM
- ED50 [4]: 18.1 mg/kg
- ED50 [5]: 50.8 mg/kg
- selectivity ratio [6]: 10

Compound: CNC(=O)[C@@H](C)N1CCC23CCCCC2[C@@H]1Cc1ccc(OCc2cccc(F)c2)cc13 (stereo partly specified)
- IC50 [1]: 5.3 µM
- ED50 [2]: 152 mg/kg
- IC50 [3]: > 300 µM
- ED50 [4]: 41.6 mg/kg
- selectivity ratio [6]: 4

Compound: COc1ccc2c(c1)C13CCCCC1C(C2)N(C)CC3 (stereo not drawn) [RACEMETHORPHAN]
- IC50 [1]: 1.3 µM
- LD50 [7]: 234 mg/kg
- IC50 [3]: > 300 µM
- ED50 [4]: 10.1 mg/kg
- ED50 [5]: 12.9 mg/kg

Compound: CS(=O)(=O)O.C[C@H](NCc1ccc(OCc2cccc(F)c2)cc1)C(N)=O [SAFINAMIDE MESYLATE]
- ED50 [2]: 626 mg/kg
- IC50 [3]: > 300 µM
- ED50 [4]: 6.9 mg/kg
- ED50 [5]: 8 mg/kg
- selectivity ratio [6]: 78
